Laboratory results taken from patent US9580416B2, “Inhibitors of Bruton's tyrosine kinase” (PHARMACYCLICS LLC, priority 2014, dated 2017).

Experiments:
Format in all cases: biochemical
Lck = Lck (Homo sapiens, UniProt P06239); assay: Lck kinase activity, TR-FRET assay; conditions: read-out: LCK (IC50)
In short: (§1)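 Enzyme (Btk 0.5 nM; Lck 6 nM) reacted 1 h with inhibitor, ATP at Km and biotin-peptide substrate in pH 7.4 buffer, 10% DMSO. Phosphopeptide detected by Eu-p-Tyr100 antibody plus streptavidin-APC (665/615 nm). IC50 calculated from fitted Ki(app) via ATP/Km correction plus half total enzyme.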

EGFR = EGFR (Homo sapiens, UniProt P00533); assay: Inhibition of a panel of kinases, in vitro HotSpot kinase assay: EGFR
Procedure: (§2) The degree of inhibition of a panel of kinases is determined using the in vitro HotSpot kinase assay (purified enzymes, ^33P-ATP, an appropriate substrate and 1 uM ATP).

JAK3 = target: T1, JAK3 (Homo sapiens, UniProt P52333); assay: Inhibition of a panel of kinases, in vitro HotSpot kinase assay: JAK3
T1 sequence (P52333 1-1124): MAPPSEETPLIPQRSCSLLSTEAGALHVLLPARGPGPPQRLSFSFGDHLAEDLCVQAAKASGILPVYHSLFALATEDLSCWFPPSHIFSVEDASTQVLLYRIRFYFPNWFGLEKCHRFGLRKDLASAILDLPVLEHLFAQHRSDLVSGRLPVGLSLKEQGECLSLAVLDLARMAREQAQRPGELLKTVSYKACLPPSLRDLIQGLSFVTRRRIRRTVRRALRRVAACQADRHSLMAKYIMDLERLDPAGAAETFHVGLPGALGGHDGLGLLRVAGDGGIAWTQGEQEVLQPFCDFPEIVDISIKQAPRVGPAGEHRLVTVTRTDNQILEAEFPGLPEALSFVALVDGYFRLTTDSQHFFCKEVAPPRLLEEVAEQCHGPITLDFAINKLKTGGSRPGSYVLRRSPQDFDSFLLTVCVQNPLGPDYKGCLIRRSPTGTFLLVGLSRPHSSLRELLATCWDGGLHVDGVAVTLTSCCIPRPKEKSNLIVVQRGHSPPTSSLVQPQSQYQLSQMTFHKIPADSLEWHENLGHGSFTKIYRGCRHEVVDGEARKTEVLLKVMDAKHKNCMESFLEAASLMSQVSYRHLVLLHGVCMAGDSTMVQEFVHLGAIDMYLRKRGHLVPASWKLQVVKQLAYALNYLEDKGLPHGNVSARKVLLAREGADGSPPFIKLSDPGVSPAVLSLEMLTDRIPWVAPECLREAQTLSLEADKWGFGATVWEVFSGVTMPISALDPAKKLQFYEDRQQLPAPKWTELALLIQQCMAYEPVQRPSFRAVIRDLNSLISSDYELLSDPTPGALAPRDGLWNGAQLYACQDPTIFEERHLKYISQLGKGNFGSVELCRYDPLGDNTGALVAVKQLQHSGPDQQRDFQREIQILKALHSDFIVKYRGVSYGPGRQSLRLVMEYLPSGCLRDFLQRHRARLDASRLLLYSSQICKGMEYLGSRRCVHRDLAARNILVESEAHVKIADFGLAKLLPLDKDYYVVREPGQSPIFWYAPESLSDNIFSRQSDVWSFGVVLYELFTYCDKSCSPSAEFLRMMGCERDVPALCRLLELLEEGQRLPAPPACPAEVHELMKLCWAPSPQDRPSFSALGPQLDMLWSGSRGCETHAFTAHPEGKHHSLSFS
Procedure: as §2

Btk = Btk (Homo sapiens, UniProt Q06187); assay: Btk kinase activity, TR-FRET assay; conditions: read-out: Btk (IC50)
In short: as §1

Chain of Lck (P06239 whole entry, species assumed): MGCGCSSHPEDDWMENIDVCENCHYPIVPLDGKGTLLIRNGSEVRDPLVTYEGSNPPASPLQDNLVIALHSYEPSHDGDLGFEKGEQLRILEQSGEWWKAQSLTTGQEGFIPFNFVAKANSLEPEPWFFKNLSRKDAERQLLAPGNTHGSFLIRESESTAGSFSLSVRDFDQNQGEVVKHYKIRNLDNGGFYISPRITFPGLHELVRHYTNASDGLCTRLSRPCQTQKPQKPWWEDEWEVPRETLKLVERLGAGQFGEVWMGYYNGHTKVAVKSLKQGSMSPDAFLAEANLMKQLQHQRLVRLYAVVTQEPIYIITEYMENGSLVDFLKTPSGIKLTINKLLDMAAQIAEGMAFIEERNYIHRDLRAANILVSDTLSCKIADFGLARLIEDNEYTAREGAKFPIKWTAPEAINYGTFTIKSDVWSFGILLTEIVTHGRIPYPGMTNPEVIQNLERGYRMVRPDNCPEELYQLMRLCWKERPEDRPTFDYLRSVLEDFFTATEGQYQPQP
Chain of Btk (Q06187 whole entry): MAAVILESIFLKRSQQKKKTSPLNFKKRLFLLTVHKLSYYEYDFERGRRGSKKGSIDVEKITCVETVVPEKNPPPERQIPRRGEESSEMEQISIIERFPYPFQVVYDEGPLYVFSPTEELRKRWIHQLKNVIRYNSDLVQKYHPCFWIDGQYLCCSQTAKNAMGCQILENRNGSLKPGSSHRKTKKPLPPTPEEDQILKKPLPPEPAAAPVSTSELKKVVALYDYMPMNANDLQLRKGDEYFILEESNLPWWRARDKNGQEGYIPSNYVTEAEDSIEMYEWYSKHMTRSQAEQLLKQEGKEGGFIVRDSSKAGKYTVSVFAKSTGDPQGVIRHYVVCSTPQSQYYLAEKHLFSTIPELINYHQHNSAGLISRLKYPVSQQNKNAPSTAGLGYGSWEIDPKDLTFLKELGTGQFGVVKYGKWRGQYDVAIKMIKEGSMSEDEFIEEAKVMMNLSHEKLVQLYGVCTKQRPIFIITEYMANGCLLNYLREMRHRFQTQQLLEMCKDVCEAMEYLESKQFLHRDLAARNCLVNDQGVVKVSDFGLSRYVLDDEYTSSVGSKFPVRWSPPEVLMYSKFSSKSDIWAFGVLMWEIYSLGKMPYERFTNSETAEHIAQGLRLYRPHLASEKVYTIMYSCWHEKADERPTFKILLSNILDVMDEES
Chain of EGFR (P00533 25-1210): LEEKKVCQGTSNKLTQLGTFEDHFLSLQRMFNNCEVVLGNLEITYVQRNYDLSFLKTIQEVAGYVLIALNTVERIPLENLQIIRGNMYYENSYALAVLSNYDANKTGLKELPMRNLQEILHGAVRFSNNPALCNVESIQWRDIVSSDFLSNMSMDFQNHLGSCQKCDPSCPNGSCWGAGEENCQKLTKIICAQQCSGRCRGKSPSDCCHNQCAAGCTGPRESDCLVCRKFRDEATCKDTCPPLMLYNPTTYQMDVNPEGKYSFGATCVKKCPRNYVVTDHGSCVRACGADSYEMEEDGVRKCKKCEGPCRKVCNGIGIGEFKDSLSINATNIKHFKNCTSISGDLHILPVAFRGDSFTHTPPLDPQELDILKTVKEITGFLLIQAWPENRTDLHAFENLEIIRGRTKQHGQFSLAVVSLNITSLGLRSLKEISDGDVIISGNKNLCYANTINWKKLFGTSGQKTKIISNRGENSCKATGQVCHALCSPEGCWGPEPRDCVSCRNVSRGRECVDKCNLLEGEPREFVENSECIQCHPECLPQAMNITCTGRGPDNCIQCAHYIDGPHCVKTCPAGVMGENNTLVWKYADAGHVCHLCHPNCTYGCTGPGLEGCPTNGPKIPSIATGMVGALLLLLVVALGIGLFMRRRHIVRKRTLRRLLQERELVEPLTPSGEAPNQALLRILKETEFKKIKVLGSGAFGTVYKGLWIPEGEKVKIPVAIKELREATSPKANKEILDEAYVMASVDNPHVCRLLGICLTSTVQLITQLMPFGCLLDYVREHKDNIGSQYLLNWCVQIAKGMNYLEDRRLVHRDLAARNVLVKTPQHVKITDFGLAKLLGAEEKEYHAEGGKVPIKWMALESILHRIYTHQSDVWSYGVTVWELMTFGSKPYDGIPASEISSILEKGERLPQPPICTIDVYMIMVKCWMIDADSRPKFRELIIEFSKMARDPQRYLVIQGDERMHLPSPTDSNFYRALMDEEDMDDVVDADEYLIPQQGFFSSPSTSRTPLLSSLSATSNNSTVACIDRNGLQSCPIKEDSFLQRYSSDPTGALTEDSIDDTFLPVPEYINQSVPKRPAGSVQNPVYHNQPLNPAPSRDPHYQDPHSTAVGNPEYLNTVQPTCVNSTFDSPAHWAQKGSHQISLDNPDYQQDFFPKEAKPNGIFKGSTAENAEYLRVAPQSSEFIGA

Compound | IC50 (Lck) [nM] | IC50 (EGFR) [nM] | IC50 (JAK3) [nM] | IC50 (Btk) [nM]
CCOP(=O)(CCC(=O)N1CCC[C@@H](Nc2n[nH]c3nccc(Oc4ccc(C(=O)Nc5cc(C)ccn5)cc4)c23)C1)OCC [compound 273, (R)-diethyl 3-(3-(4-(4-(4-methylpyridin-2-ylcarbamoyl)phenoxy)-1H-pyrazolo[3,4-b]pyridin-3-ylamino)piperidin-1-yl)-3-oxopropylphosphonate] | 1000 to 10000 | > 10000 | > 10000 | < 100
C=CC(=O)N1CCC[C@@H](Nc2n[nH]c3nccc(Oc4cccc(C(=O)Nc5ccc(C(C)C)c(C)c5)c4)c23)C1 [compound 250, (R)-3-(3-(1-acryloylpiperidin-3-ylamino)-1H-pyrazolo[3,4-b]pyridin-4-yloxy)-N-(4-isopropyl-3-methylphenyl)benzamide] | < 100 | < 100 | < 100 | < 100
C=CC(=O)N1CC[C@@H](Nc2n[nH]c3nccc(Oc4ccc(Oc5ccccc5)cc4)c23)C1 [compound 4, 1-[(3R)-3-{[4-(4-phenoxyphenoxy)-1H-pyrazolo[3,4-b]pyridin-3-yl]amino}pyrrolidin-1-yl]prop-2-en-1-one] | < 100 | < 100 | 100 to 1000 | < 100
O=C(Nc1ccccn1)c1ccc(Oc2ccnc3[nH]nc(N[C@@H]4CCCN(C(=O)C5CC5)C4)c23)cc1 [compound 232, 4-[(3-{[(3R)-1-cyclopropanecarbonylpiperidin-3-yl]amino}-1H-pyrazolo[3,4-b]pyridin-4-yl)oxy]-N-(pyridin-2-yl)benzamide] | > 10000 | 1000 to 10000 | > 10000 | < 100
C=CC(=O)N1CCC[C@@H](Nc2n[nH]c3nccc(Oc4cccc(-c5ncc(C)s5)c4)c23)C1 [compound 148] | > 10000 | 100 to 1000 | 1000 to 10000 | 100 to 1000
CCOP(=O)(CCCC(=O)N1CCC[C@@H](Nc2n[nH]c3nccc(Oc4ccc(C(=O)Nc5cc(C)ccn5)cc4)c23)C1)OCC [compound 271, (R)-diethyl 4-(3-(4-(4-(4-methylpyridin-2-ylcarbamoyl)phenoxy)-1H-pyrazolo[3,4-b]pyridin-3-ylamino)piperidin-1-yl)-4-oxobutylphosphonate] | 100 to 1000 | > 10000 | > 10000 | < 100
CN1CCC(C(=O)N2CC[C@@H](Nc3n[nH]c4nccc(Oc5ccc(C(=O)Nc6cc(C(F)(F)F)ccn6)cc5)c34)C2)CC1 [compound 199, 4-[(3-{[1-(1-methylpiperidin-4-carbonyl)pyrrolidin-3-yl]amino}-1H-pyrazolo[3,4-b]pyridin-4-yl)oxy]-N-[4-(trifluoromethyl)pyridin-2-yl]benzamide] | 100 to 1000 | 100 to 1000 | > 10000 | < 100
CCNC(=O)N1CCC[C@@H](Nc2n[nH]c3nccc(Oc4ccc(C(=O)Nc5cc(C)ccn5)cc4)c23)C1 [compound 227, (R)-N-ethyl-3-(4-(4-(4-methylpyridin-2-ylcarbamoyl)phenoxy)-1H-pyrazolo[3,4-b]pyridin-3-ylamino)piperidine-1-carboxamide] | 1000 to 10000 | > 10000 | > 10000 | < 100
Cc1ccnc(NC(=O)c2ccc(Oc3ccnc4[nH]nc(NC5CCN(C(=O)C6(C#N)CC6)CC5)c34)cc2)c1 [compound 277, 4-(3-(1-(1-cyanocyclopropanecarbonyl)piperidin-4-ylamino)-1H-pyrazolo[3,4-b]pyridin-4-yloxy)-N-(4-methylpyridin-2-yl)benzamide] | 1000 to 10000 | 1000 to 10000 | > 10000 | 100 to 1000
C=CC(=O)N1CC[C@@H](Nc2n[nH]c3nccc(Oc4ccc(Cl)cc4)c23)C1 [compound 1] | 1000 to 10000 | 100 to 1000 | 1000 to 10000 | < 100
Cc1ccnc(NC(=O)c2ccc(Oc3ccnc4[nH]nc(N[C@@H]5CCCN(C(=O)C6(C)CC6)C5)c34)cc2)c1 [compound 120, 4-[(3-{[(3R)-1-(1-methylcyclopropanecarbonyl)piperidin-3-yl]amino}-1H-pyrazolo[3,4-b]pyridin-4-yl)oxy]-N-(4-methylpyridin-2-yl)benzamide] | 100 to 1000 | > 10000 | > 10000 | < 100
Cc1ccnc(NC(=O)c2ccc(Oc3ccnc4[nH]nc(N[C@@H]5CCN(C(=O)C6(C#N)CC6)C5)c34)cc2)c1 [compound 279, (R)-4-(3-(1-(1-cyanocyclopropanecarbonyl)pyrrolidin-3-ylamino)-1H-pyrazolo[3,4-b]pyridin-4-yloxy)-N-(4-methylpyridin-2-yl)benzamide] | 1000 to 10000 | > 10000 | > 10000 | < 100
Cc1cc(Oc2ccnc3[nH]nc(N[C@@H]4CCCN(C(=O)/C=C/CN(C)C5CC5)C4)c23)ccc1Oc1ccccc1 [compound 156] | 100 to 1000 | 100 to 1000 | > 10000 | < 100
C=CC(=O)N1CCC[C@@H](Nc2n[nH]c3nccc(Oc4ccc(Oc5ccccc5)cc4)c23)C1 [compound 6, 1-[(3R)-3-{[4-(4-phenoxyphenoxy)-1H-pyrazolo[3,4-b]pyridin-3-yl]amino}piperidin-1-yl]prop-2-en-1-one] | < 100 | < 100 | 100 to 1000 | < 100
C=CC(=O)N1CCC[C@@H](Nc2n[nH]c3nccc(Oc4ccc(C(=O)Nc5nc(C)c(C)s5)cc4)c23)C1 [compound 146] | 100 to 1000 | 100 to 1000 | < 100 | < 100
COCC#CC(=O)N1CCC[C@@H](Nc2n[nH]c3nccc(Oc4ccc(C(=O)Nc5cc(C)ccn5)cc4)c23)C1 [compound 281, (R)-4-(3-(1-(4-methoxybut-2-ynoyl)piperidin-3-ylamino)-1H-pyrazolo[3,4-b]pyridin-4-yloxy)-N-(4-methylpyridin-2-yl)benzamide] | 1000 to 10000 | 1000 to 10000 | 100 to 1000 | < 100
Cc1ccnc(NC(=O)c2ccc(Oc3ccnc4[nH]nc(N[C@@H]5CCCN(C(=O)C6CC6)C5)c34)cc2)c1 [compound 100, 4-[(3-{[(3R)-1-cyclopropanecarbonylpiperidin-3-yl]amino}-1H-pyrazolo[3,4-b]pyridin-4-yl)oxy]-N-(4-methylpyridin-2-yl)benzamide] | 100 to 1000 | 1000 to 10000 | > 10000 | < 100
Cc1ccnc(NC(=O)c2ccc(Oc3ccnc4[nH]nc(N[C@@H]5CCN(C#N)C5)c34)cc2)c1 [compound 275, (R)-4-(3-(1-cyanopyrrolidin-3-ylamino)-1H-pyrazolo[3,4-b]pyridin-4-yloxy)-N-(4-methylpyridin-2-yl)benzamide] | 100 to 1000 | 1000 to 10000 | > 10000 | < 100
Cc1cccc2nc(-c3ccc(Oc4ccnc5[nH]nc(N[C@@H]6CCCN(C(=O)C7CC7)C6)c45)cc3)oc12 [compound 220, (3R)-1-cyclopropanecarbonyl-N-{4-[4-(7-methyl-1,3-benzoxazol-2-yl)phenoxy]-1H-pyrazolo[3,4-b]pyridin-3-yl}piperidin-3-amine] | > 10000 | > 10000 | > 10000 | 1000 to 10000
